Marks after values point to notes of the source that are not given here.
Test system: C170HM2 human colorectal tumor cells
Test: Colon cancer metastasis to the liver (orthotopic liver metastasis model)
Assay type: in vivo, MF1 nude (nu/nu) athymic mice
Protocol: Liver metastasis was initiated by intraperitoneal injection of C170HM2 human colorectal tumor cells into male MF1 nude (nu/nu) athymic mice. 5FU/leucovorin was used as a positive control.
C170HM2 cells were maintained in vitro in RPMI culture medium (Sigma) containing 10% (v/v) heat inactivated fetal bovine serum and 2 mM L-glutamine at 37° C. in 5% CO2 and humidified conditions. Cells from sub-confluent monolayers were harvested with 0.025% EDTA, washed in culture medium and re-suspended in sterile phosphate buffered saline, pH 7.4 (PBS) for in vivo administration. 1.5×10^6 cells in a volume of 1 ml were injected intraperitoneally into 65 mice, and the mice were allocated into treatment groups as below.
Treatment was initiated on day 1 following cell injection and continued until day 35 or until the clinical condition of the animal required termination. One mouse in group 6 was terminated on day 20 due to black tail, bruising, and very pale appearance. Groups and 6 missed one dose on day 5. No adverse affects of the test compounds in mice bearing the tumors were observed.
The study was terminated on day 35, and the tumors in the liver were excised and weighed.

[1] = 25 mg/kg i.v. days 1, 3, 5, 7, calculated in comparison to group 7 (untreated), not group 1
[2] = 25 mg/kg i.v., compared to the untreated control group (group 7)

Substance: 5FU/leucovorin [5 FU/Leu]
- Mean tumor weight (25 mg/kg i.v. cycled on days 1, 3, 5, 7, liver tumors day 35): 0.037 g
- Mean tumor area (% of vehicle) [1]: 15.7 % of vehicle
- Mean tumor weight (% of vehicle) [1]: 11.94* % of vehicle
- Mean tumor area (mm^2) (25 mg/kg i.v. days 1, 3, 5, 7, cross-sectional area, day 35): 13.12 mm^2
- decrease in tumor cross-sectional area [2]: 84%
- decrease of tumor weight in the liver [2]: approximately 88%
- decrease in tumor size (25 mg/kg i.v., compared to the vehicle control group (group 1), not significant): 62%
